Active and inactive are the calls of the source.
What was measured:
[1] = molecular target: T1, Heat shock factor protein 1 (Mus musculus, UniProt P38532); assay: inhibition of MG132-induced HSE-luciferase signal, confirmation, cell-based, NIH3T3, luminescence, dose retest (AID 2382); format: functional;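 note: NIH3T3 fibroblasts with HSF1-driven luciferase reporter stressed by proteasome inhibitor MG132; luminescence from HSF1-driven luciferase expression after 8 hours of MG132 stress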
T1 sequence (P38532 whole entry): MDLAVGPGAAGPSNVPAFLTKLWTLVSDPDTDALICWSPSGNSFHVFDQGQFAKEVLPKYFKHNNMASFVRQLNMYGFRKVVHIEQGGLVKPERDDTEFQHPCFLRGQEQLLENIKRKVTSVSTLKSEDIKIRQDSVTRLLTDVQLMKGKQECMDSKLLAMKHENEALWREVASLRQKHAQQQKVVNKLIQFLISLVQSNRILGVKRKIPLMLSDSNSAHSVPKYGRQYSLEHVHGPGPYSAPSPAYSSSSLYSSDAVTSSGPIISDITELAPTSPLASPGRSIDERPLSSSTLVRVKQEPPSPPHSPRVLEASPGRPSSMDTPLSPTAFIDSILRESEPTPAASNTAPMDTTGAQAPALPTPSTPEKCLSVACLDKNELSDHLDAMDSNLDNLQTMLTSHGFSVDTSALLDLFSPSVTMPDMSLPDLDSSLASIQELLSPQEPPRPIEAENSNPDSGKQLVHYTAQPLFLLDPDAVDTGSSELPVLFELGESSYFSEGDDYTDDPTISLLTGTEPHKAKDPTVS

[2] = cytotoxicity in HPDE-C7 cells, cell-based, fluorescence, HTS (AID 430); format: functional; conditions: Homo sapiens
[3] = cytotoxicity in KRAS-transformed pancreatic duct cells, primary screen, cell-based, fluorescence, HTS (AID 431); format: functional; conditions: Homo sapiens;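 note: cell line used: HPDE-C7K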
HEK293 = assay: inhibitors of LMP1-driven NF-kB reporter, dose response, cell-based, HEK293, luciferase, cherry-pick (AID 588343); format: functional; conditions: Homo sapiens
[4] = molecular target: Peroxisome proliferator-activated receptor gamma/Nuclear receptor coactivator 2 (Homo sapiens, UniProt P37231); format: functional;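 note: agonist potency for raising coactivator recruitment to the receptor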
[5] = molecular target: Peroxisome proliferator-activated receptor gamma/Nuclear receptor coactivator 1 (Homo sapiens, UniProt P37231); format: functional;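 note: agonist potency as compounds enhance coactivator SRC-1 recruitment to PPARgamma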
[6] = molecular target: Peroxisome proliferator-activated receptor gamma/Nuclear receptor coactivator 3 (Homo sapiens, UniProt P37231); format: functional;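 note: agonist potency for raising coactivator recruitment to the receptor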
[7] = molecular target: T2, Rac GTPase-activating protein 1 (Homo sapiens, UniProt Q9H0H5); assay: MgcRacGAP GTPase-activating activity inhibitors, confirmation, biochemical, ADP Hunter fluorescence, primary and confirmatory (AID 624330); format: functional
T2 sequence (Q9H0H5 whole entry): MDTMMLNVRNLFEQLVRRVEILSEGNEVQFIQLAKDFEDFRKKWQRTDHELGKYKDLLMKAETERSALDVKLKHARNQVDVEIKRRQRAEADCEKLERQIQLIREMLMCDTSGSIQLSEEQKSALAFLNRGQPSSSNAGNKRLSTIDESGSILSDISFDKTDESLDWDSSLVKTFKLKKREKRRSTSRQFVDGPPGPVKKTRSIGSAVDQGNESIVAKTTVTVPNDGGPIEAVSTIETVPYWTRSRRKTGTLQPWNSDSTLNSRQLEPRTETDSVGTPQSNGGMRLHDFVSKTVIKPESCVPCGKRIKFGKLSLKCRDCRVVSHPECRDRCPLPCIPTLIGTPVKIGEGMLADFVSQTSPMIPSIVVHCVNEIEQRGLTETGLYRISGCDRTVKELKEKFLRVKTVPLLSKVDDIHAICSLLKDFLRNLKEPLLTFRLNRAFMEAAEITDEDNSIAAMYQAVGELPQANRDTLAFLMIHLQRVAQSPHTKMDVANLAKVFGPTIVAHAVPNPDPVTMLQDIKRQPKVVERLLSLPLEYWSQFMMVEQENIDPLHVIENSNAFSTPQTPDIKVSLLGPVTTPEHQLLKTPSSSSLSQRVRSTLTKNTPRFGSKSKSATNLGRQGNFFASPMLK

NADPH oxidase 1 = molecular target: T3, NADPH oxidase 1 (Homo sapiens, UniProt Q9Y5S8); format: functional, cell-based;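 note: Cell-based assay with luminescence read-out, IC50 derived from inhibitor dose-response curves; intracellular ROS from endogenous NOX1 in intact HT29 colon cancer cells; potency of inhibitors that lower the ROS luminescence signal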
T3 sequence (Q9Y5S8 whole entry): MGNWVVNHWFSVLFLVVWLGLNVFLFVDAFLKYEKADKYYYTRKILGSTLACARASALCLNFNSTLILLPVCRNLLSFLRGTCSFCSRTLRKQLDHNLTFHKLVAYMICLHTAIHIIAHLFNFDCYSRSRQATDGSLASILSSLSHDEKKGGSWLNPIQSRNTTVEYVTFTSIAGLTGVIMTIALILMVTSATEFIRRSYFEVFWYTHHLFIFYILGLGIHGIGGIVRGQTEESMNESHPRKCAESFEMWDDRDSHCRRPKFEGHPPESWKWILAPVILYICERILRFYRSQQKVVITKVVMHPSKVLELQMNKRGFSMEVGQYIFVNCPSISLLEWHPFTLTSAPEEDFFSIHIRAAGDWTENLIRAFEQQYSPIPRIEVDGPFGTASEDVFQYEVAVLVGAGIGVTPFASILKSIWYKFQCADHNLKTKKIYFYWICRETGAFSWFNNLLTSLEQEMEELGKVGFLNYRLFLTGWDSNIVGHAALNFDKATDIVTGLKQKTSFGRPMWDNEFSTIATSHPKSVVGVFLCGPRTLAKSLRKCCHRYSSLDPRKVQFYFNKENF

[8] = tested on: Streptococcus sp. 'group A'; assay: growth inhibition of control SK(-) GAS strain, dose response, counter-screen for streptokinase expression inhibitor project, luminescence, kanamycin, BacTiterGlo, confirmation (AID 1900); format: functional, organism-based
Streptokinase A = molecular target: T4, Streptokinase A (Streptococcus pyogenes serotype M1, UniProt P10520); assay: S. pyogenes streptokinase expression inhibitors, potency, dose response, plasminogen activation absorbance, OD405 (AID 1914); format: functional, Streptococcus pyogenes M1 GAS;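 note: secreted streptokinase activity via plasminogen activation per viability signal from cell pellet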
T4 sequence (P10520 whole entry): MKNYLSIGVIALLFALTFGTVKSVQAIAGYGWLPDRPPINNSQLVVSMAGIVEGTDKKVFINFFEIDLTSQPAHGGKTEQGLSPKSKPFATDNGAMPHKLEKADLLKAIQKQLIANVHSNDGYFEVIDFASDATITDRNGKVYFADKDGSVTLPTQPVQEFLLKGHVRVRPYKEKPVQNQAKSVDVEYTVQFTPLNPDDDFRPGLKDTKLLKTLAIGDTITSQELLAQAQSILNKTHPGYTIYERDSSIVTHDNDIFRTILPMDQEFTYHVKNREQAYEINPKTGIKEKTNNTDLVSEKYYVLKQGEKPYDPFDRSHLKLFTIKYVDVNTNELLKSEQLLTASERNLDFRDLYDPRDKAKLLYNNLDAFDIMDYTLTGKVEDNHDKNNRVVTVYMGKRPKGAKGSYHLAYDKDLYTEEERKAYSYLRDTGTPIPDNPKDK

Estrogen receptor = molecular target: T5, Estrogen receptor (Homo sapiens, UniProt P03372);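 note: potency for inhibiting coactivator peptide recruitment to the receptor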
T5 sequence (P03372 whole entry): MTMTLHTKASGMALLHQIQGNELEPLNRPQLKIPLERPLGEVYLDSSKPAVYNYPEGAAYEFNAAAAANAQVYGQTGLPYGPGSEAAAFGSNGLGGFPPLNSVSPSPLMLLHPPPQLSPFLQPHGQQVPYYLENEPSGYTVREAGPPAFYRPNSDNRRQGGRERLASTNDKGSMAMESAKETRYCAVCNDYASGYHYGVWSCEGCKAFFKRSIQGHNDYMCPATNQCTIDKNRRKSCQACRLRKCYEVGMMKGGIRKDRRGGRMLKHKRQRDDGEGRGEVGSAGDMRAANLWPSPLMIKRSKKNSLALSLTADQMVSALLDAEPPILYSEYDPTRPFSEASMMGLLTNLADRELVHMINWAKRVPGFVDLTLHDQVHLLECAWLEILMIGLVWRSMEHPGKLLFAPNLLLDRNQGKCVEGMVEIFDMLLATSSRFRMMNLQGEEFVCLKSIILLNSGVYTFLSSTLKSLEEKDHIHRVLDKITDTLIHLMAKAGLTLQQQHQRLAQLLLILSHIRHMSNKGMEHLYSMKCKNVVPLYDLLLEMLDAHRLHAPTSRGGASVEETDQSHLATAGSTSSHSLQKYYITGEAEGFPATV

Estrogen receptor beta [9] = molecular target: T6, Estrogen receptor beta (Homo sapiens, UniProt Q92731);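 note: recombinant ER-beta bound to coactivator SRC1 peptide in presence of estradiol agonist; inhibitors block coactivator peptide binding and lower the FRET signal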
Estrogen receptor beta [10] = molecular target: T6, Estrogen receptor beta; assay: ERβ–SRC-3 coactivator interaction inhibitors, confirmation, orthogonal assay, biochemical, ELISA, streptavidin-HRP readout (AID 1060)
Streptococcus = assay: Group A Streptococcus viability loss, dose response, counter-screen for streptokinase expression inhibitor project, luminescence, BacTiterGlo (AID 1915); format: functional, organism-based;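 note: potency for reduction of bacterial viability or growth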
[11] = Luminescence Cell-Based Dose Retest to Confirm Inhibitors of Cancer Stem Cells. [Related pubchem assays (depositor defined):AID2717, AID2721]; format: functional; conditions: Homo sapiens
Nonstructural protein 1 = Nonstructural protein 1 (Influenza A virus, UniProt Q194T2); format: functional, Influenza A virus (A/California/07/2009(H1N1))
INS1 = assay: beta cell apoptosis inhibitors, cytokine rescue, dose response, luminescence, retest (AID 449756); format: functional, cell-based; conditions: Rattus norvegicus;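 note: cell death triggered by IL-1 beta plus TNF-alpha plus IFN-gamma mixture; protective hits raise ATP signal compared with cytokine alone wells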
[12] = HEp-2 cell cytotoxicity, dose response, cytotoxicity control for RSV inhibitor project, HTS (AID 2410); format: functional; conditions: human respiratory syncytial virus
[13] = molecular target: T7, Corticotropin-releasing factor receptor 2/Corticotropin-releasing factor-binding protein (Homo sapiens, UniProt P24387+Q13324); assay: Dose Response confirmation of uHTS hits for small molecule antagonists of the CRF-binding protein and CRF-R2 receptor complex.; format: functional; conditions: read-out: IC50_Mean
T7 sequence (Q13324 whole entry): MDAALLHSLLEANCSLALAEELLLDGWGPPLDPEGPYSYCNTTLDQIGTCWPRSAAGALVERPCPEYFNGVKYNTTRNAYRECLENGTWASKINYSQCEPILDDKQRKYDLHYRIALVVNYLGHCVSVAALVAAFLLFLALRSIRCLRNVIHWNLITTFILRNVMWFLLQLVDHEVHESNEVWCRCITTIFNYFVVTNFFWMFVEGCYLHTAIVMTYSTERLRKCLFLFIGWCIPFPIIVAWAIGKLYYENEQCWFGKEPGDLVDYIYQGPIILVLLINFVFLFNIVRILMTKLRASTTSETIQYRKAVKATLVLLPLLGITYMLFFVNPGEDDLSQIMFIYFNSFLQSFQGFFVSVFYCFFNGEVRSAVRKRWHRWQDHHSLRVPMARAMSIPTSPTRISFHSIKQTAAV
T7 sequence (P24387 whole entry): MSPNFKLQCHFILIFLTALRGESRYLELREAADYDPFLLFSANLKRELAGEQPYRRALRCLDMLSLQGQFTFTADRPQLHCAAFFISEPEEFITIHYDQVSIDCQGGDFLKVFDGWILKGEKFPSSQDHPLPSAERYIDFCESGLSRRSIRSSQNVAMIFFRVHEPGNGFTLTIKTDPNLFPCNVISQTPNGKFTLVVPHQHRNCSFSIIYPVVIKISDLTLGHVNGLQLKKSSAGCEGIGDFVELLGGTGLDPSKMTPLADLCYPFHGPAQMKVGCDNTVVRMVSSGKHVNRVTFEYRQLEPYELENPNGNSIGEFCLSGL

[14] = molecular target: T7, Corticotropin-releasing factor receptor 2/Corticotropin-releasing factor-binding protein; assay: activators of CRF receptor 2 with binding protein – uHTS hits, confirmation (AID 602473); format: functional; conditions: read-out: EC50_Mean
[15] = CRF-BP/CRF-R2 complex antagonists, dose response, cell-based, uHTS hits, 384-well (AID 651639); format: functional, Homo sapiens; conditions: read-out: IC50_Mean

Chain of Peroxisome proliferator-activated receptor gamma/Nuclear receptor coactivator 3 (P37231 whole entry): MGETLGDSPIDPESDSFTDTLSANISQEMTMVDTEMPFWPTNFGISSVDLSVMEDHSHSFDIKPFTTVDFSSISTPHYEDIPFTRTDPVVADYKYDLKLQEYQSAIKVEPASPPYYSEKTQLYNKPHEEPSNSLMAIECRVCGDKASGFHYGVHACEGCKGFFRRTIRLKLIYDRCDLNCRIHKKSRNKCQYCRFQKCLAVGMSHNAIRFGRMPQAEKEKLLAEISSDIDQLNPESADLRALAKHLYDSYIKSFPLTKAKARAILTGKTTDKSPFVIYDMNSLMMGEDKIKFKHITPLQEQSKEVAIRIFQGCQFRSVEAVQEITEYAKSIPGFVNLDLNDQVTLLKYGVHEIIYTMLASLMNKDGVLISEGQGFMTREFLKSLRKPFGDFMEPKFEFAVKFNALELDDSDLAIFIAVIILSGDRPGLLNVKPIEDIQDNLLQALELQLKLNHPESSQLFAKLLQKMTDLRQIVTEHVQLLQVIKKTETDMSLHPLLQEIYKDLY
Chain of Peroxisome proliferator-activated receptor gamma/Nuclear receptor coactivator 3 (Q9Y6Q9 whole entry, further chain): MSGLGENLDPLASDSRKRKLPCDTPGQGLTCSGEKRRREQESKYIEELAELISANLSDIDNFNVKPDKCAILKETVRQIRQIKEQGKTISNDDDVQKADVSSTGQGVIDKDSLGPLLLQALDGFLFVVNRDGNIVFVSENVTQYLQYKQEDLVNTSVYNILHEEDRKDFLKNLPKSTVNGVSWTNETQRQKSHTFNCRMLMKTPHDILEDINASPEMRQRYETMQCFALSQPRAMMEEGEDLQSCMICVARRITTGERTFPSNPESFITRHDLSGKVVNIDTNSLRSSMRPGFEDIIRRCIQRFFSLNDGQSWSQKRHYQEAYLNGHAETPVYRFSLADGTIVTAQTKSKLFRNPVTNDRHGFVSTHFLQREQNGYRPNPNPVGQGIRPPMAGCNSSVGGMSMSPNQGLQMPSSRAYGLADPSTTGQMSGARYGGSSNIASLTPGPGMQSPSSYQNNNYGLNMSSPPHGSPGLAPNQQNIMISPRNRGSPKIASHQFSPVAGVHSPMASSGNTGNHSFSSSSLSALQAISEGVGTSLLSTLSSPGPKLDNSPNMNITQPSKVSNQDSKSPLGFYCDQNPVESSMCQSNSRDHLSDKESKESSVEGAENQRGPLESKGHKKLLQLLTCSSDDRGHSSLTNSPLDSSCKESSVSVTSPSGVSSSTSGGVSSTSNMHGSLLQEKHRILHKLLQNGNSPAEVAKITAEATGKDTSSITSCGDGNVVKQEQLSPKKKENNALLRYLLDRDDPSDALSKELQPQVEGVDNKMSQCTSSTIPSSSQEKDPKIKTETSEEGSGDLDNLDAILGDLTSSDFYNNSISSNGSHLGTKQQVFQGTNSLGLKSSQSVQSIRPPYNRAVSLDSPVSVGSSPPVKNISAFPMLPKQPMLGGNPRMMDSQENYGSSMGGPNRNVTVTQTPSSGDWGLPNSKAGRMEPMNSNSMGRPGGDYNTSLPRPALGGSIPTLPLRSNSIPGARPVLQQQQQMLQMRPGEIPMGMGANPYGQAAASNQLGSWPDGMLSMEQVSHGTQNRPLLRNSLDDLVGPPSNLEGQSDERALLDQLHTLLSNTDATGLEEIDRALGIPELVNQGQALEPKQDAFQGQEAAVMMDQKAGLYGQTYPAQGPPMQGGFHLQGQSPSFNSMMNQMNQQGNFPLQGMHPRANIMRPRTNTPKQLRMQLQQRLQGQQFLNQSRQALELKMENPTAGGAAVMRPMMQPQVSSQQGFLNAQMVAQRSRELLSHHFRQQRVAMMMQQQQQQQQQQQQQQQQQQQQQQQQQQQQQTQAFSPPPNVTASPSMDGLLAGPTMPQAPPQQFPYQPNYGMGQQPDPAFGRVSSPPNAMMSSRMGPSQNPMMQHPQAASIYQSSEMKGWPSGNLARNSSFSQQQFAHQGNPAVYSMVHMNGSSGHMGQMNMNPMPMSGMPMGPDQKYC
Chain of Peroxisome proliferator-activated receptor gamma/Nuclear receptor coactivator 2 (P37231 whole entry): as the sequence (P37231 whole entry) above
Chain of Peroxisome proliferator-activated receptor gamma/Nuclear receptor coactivator 2 (Q15596 whole entry, further chain): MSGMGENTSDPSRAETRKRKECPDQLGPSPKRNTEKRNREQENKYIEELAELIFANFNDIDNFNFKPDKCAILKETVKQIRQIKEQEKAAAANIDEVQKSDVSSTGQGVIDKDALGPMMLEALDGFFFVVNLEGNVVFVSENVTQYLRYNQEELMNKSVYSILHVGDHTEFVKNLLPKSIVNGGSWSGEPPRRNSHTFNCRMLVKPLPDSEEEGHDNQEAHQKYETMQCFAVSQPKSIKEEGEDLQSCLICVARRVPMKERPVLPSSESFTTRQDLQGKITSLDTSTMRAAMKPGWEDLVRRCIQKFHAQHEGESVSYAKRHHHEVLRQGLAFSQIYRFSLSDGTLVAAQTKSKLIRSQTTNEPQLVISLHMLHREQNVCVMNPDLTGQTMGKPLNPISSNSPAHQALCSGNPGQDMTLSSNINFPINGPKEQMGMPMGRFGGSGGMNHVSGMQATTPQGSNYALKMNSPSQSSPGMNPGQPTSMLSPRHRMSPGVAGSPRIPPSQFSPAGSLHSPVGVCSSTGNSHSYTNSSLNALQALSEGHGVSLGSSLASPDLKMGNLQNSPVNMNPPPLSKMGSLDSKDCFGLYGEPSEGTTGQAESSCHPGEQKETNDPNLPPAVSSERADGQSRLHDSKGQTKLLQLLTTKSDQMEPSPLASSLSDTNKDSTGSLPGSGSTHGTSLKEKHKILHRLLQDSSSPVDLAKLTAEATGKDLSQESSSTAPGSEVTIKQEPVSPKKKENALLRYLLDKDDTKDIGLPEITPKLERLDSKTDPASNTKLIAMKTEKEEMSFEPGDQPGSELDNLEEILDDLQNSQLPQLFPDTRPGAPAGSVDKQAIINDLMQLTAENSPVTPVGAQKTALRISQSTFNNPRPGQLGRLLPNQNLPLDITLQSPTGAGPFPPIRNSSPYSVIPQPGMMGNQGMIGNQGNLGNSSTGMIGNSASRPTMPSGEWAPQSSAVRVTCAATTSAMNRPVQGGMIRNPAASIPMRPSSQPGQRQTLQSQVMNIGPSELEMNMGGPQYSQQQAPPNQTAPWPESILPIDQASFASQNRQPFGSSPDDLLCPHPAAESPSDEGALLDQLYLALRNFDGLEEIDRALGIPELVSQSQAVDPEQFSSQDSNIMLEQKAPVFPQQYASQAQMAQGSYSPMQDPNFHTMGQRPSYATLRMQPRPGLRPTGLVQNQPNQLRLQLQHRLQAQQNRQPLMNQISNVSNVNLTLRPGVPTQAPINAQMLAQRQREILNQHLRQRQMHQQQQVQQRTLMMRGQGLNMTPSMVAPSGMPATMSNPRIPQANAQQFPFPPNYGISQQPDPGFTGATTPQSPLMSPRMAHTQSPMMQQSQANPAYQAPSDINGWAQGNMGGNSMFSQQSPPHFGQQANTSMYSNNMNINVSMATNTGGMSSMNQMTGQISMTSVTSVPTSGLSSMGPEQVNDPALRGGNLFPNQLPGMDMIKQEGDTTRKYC
T6 sequence (Q92731 whole entry): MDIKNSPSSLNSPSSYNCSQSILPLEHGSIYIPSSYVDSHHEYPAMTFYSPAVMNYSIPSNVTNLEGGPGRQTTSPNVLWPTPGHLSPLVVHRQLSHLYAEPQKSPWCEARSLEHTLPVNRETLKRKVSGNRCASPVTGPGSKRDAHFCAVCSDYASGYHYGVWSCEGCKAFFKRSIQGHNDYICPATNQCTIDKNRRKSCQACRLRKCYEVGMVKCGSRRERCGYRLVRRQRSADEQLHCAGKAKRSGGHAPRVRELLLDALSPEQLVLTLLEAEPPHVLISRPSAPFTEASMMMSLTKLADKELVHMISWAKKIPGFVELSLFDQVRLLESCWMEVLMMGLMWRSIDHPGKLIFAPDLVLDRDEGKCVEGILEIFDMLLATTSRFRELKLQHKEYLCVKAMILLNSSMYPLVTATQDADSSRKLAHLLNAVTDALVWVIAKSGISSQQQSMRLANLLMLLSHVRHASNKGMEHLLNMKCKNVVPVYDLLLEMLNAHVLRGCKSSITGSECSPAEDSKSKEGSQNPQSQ
Chain of Nonstructural protein 1 (Q194T2 whole entry): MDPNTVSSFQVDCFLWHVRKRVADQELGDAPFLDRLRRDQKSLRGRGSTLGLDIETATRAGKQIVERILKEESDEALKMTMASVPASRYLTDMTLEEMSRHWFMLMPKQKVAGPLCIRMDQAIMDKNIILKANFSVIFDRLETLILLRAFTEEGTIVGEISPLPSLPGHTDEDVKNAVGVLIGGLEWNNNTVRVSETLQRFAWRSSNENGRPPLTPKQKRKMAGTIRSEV

SMILES: Cc1nn(-c2ccccc2)c(Cl)c1C(=O)N1CCN(c2ncnc3c2cnn3-c2ccccc2)CC1
- EC50 [1]: 5.06 µM (active)
- EC50 [2]: 8.56 µM (active)
- EC50 [3]: 9.4 µM (active)
- AC50 (HEK293): 5.24 µM (active)

SMILES: CCOCCCNCc1ccc(OC)c(OC)c1
- EC50 [4]: > 79.4 µM (not active)
- EC50 [5]: > 79.4 µM (not active)
- EC50 [6]: > 79.4 µM (not active)

SMILES: CCn1c(SCC(=O)Nc2ccc(N(C)C)cc2)nnc1-c1cccc(C)c1
- EC50 [1]: > 195 µM (not active)
- EC50 [2]: > 20 µM (not active)
- EC50 [3]: 15.8 µM (active)
- IC50 [7]: 65.2 µM (active)

SMILES: COc1ccc(C(=O)NCC(=O)N=Nc2c(O)n(Cc3ccccc3)c3ccccc23)cc1OC
- EC50 [4]: > 79.4 µM (not active)
- EC50 [5]: > 79.4 µM (not active)
- EC50 [6]: > 79.4 µM (not active)

SMILES: CC(=O)Nc1ccccc1OC(=O)c1sc2cc(Cl)ccc2c1Cl
- IC50 (NADPH oxidase 1): > 17 µM (not active)

SMILES: CCc1ccc2nc(O)c(C3C(C#N)=C(N)Oc4c3ccc3cccnc43)cc2c1 (stereo not given)
- EC50 [8]: 16.1 µM (active)
- EC50 (Streptokinase A): > 150 µM (not active)
- IC50 (Estrogen receptor): 11.3 µM (active)
- IC50 (Estrogen receptor beta [9]): 12 µM (active)
- IC50 (Estrogen receptor beta [10]): 2.79 µM (not active)
- EC50 (Streptococcus): > 150 µM (not active)
- AC50 [11]: 6.07 µM (active)
- IC50 (Nonstructural protein 1): 32.6 µM (active)
- AC50 (INS1): 1.46 µM (active)

SMILES: Cc1ccccc1-c1nnc(S)n1/N=C/c1c(C)nn(-c2ccccc2)c1C
- CC50 [12]: 29.1 µM (active)
- IC50 [13]: 8.4 µM (active)
- EC50 [14]: > 53 µM (inactive)
- IC50 [15]: 12.3 µM (active)
- IC50 (cells): 11.3 µM (active)

SMILES: COc1cccc(-c2nc(-c3ccccc3)c(-c3ccccc3)[nH]2)c1
- IC50 (NADPH oxidase 1): > 17 µM (not active)
